Results reported in PubChem BioAssay AID1963443 (Molecular Pharmacology Branch, DTP, NCI, 2024).
Where “and” joins values, the source holds several entries; their conditions need not be identical. Identical values can stand only once.

Test system: MDA-MB-231 complex spheroids, growth inhibition
Experiment: Anticancer human tumor MDA-MB-231 cell line growth inhibition [Asc];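 also: spheroids exposed to compounds for 7 days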
Conditions: for viability, T/C: stronger effect = lower value
Outline: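 Tumor cells were grown as multicellular spheroids with stromal HUVEC and mesenchymal stem cells and treated singly or in combination. Concentrations fell in half-log steps from the clinical Cmax, or from 10 microM where none was known.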

[1] = curve of first compound, second compound 0.1 µM
[2] = curve of first compound, second compound 0.316 µM
[3] = curve of first compound, second compound 1 µM
[4] = second compound 0.1 µM, first compound 0.0316 µM
[5] = second compound 0.1 µM, first compound 0.1 µM
[6] = second compound 0.316 µM, first compound 0.0316 µM
[7] = second compound 0.316 µM, first compound 0.1 µM
[8] = second compound 1 µM, first compound 0.0316 µM
[9] = second compound 1 µM, first compound 0.1 µM

C=CC(=O)N1CCN(c2nc(=O)n(-c3c(C)ccnc3C(C)C)c3nc(-c4c(O)cccc4F)c(F)cc23)C(C)C1 (configuration not stated) + CNC(C)C(=O)NC1CN(S(=O)(=O)c2cccc(S(=O)(=O)N3CCC4CCC(C(=O)NC(c5ccccc5)c5ccccc5)N4C(=O)C(NC(=O)C(C)NC)C3)c2)CCC2CCC(C(=O)NC(c3ccccc3)c3ccccc3)N2C1=O
IC50 (curve of first compound, second compound 0.01 µM): < 31.6 nM
IC50 (curve of first compound, second compound 0.0316 µM): < 31.6 nM
IC50 [1]: < 31.6 nM
IC50 [2]: < 31.6 nM
IC50 [3]: < 31.6 nM
viability, T/C (second compound 0.01 µM, first compound 0.0316 µM): 4.27%
viability, T/C (second compound 0.01 µM, first compound 0.1 µM): 4.47%
viability, T/C (second compound 0.01 µM, first compound 0.316 µM): 3.48%
viability, T/C (second compound 0.01 µM, first compound 1 µM): 4.14%
viability, T/C (second compound 0.01 µM, first compound 3.16 µM): 3.21%
viability, T/C (second compound 0.01 µM, first compound 10 µM): 2.6%
viability, T/C (second compound 0.0316 µM, first compound 0.0316 µM): 1.6%
viability, T/C (second compound 0.0316 µM, first compound 0.1 µM): 1.97%
viability, T/C (second compound 0.0316 µM, first compound 0.316 µM): 3.62%
viability, T/C (second compound 0.0316 µM, first compound 1 µM): 3.15%
viability, T/C (second compound 0.0316 µM, first compound 3.16 µM): 2.97%
viability, T/C (second compound 0.0316 µM, first compound 10 µM): 3.77%
viability, T/C [4]: 1.84%
viability, T/C [5]: 1.71%
viability, T/C (second compound 0.1 µM, first compound 0.316 µM): 1.31%
viability, T/C (second compound 0.1 µM, first compound 1 µM): 0.87%
viability, T/C (second compound 0.1 µM, first compound 3.16 µM): 2.25%
viability, T/C (second compound 0.1 µM, first compound 10 µM): 1.71%
viability, T/C [6]: 1.02%
viability, T/C [7]: 1.06%
viability, T/C (second compound 0.316 µM, first compound 0.316 µM): 2.22%
viability, T/C (second compound 0.316 µM, first compound 1 µM): 1.43%
viability, T/C (second compound 0.316 µM, first compound 3.16 µM): 1.4%
viability, T/C (second compound 0.316 µM, first compound 10 µM): 2.33%
viability, T/C [8]: 1.09%
viability, T/C [9]: 1.13%
viability, T/C (second compound 1 µM, first compound 0.316 µM): 1.81%
viability, T/C (second compound 1 µM, first compound 1 µM): 1.73%
viability, T/C (second compound 1 µM, first compound 3.16 µM): 1.35%
viability, T/C (second compound 1 µM, first compound 10 µM): 3.82%

Cn1ncnc1[C@H]1c2n[nH]c(=O)c3cc(F)cc(c23)N[C@@H]1c1ccc(F)cc1 + Cc1c(S(C)(=O)=O)c(-c2cc(F)cc(N3CCN(c4ccc(NS(=O)(=O)c5ccc(NC(CCN6CCC(C(=O)OCCCP(=O)(O)O)CC6)CSc6ccccc6)c(S(=O)(=O)C(F)(F)F)c5)cc4)CC3)c2)c(-c2ccc(Cl)cc2)n1C(C)C
IC50 [1]: > 100 nM
IC50 [2]: > 100 nM
IC50 [3]: > 100 nM
IC50 (curve of first compound, second compound 3.16 µM): > 100 nM
IC50 (curve of first compound, second compound 10 µM): > 100 nM
viability, T/C (second compound 0.1 µM, first compound 0.000316 µM): 104%
viability, T/C (second compound 0.1 µM, first compound 0.001 µM): 95.4%
viability, T/C (second compound 0.1 µM, first compound 0.00316 µM): 107%
viability, T/C (second compound 0.1 µM, first compound 0.01 µM): 92.3%
viability, T/C [4]: 87.8%
viability, T/C [5]: 87.2%
viability, T/C (second compound 0.316 µM, first compound 0.000316 µM): 103%
viability, T/C (second compound 0.316 µM, first compound 0.001 µM): 105%
viability, T/C (second compound 0.316 µM, first compound 0.00316 µM): 95.9%
viability, T/C (second compound 0.316 µM, first compound 0.01 µM): 90.6%
viability, T/C [6]: 80.7%
viability, T/C [7]: 81%
viability, T/C (second compound 1 µM, first compound 0.000316 µM): 101%
viability, T/C (second compound 1 µM, first compound 0.001 µM): 107%
viability, T/C (second compound 1 µM, first compound 0.00316 µM): 105%
viability, T/C (second compound 1 µM, first compound 0.01 µM): 89.5%
viability, T/C [8]: 82.3%
viability, T/C [9]: 75.7%
viability, T/C (second compound 3.16 µM, first compound 0.000316 µM): 101%
viability, T/C (second compound 3.16 µM, first compound 0.001 µM): 95.5%
viability, T/C (second compound 3.16 µM, first compound 0.00316 µM): 82.2%
viability, T/C (second compound 3.16 µM, first compound 0.01 µM): 83.7%
viability, T/C (second compound 3.16 µM, first compound 0.0316 µM): 68.7%
viability, T/C (second compound 3.16 µM, first compound 0.1 µM): 63.1%
viability, T/C (second compound 10 µM, first compound 0.000316 µM): 115%
viability, T/C (second compound 10 µM, first compound 0.001 µM): 108%
viability, T/C (second compound 10 µM, first compound 0.00316 µM): 98.5%
viability, T/C (second compound 10 µM, first compound 0.01 µM): 91.3%
viability, T/C (second compound 10 µM, first compound 0.0316 µM): 74.4%
viability, T/C (second compound 10 µM, first compound 0.1 µM): 65%

CNC(C)C(=O)NC1CN(S(=O)(=O)c2cccc(S(=O)(=O)N3CCC4CCC(C(=O)NC(c5ccccc5)c5ccccc5)N4C(=O)C(NC(=O)C(C)NC)C3)c2)CCC2CCC(C(=O)NC(c3ccccc3)c3ccccc3)N2C1=O (configuration not stated)
viability, T/C (compound 0.00316 µM): 5.11% and 4.58% and 5.25%
viability, T/C (compound 0.01 µM): 2.25% [middle of 14 runs]
viability, T/C (compound 0.0316 µM): 1.55% [middle of 14 runs]
viability, T/C (compound 0.1 µM): 1.38% [middle of 12 runs]
IC50 (compound alone, run of 10/24/2022): < 10 nM
IC50 (compound alone, run of 11/15/2022): < 3.16 nM
IC50 (curve of compound): < 3.16 nM
